According to US20260109725A1, “MACROLIDE SENOLYTIC COMPOUNDS” (LUNELLA BIOTECH, INC., priority 2022, published 2026):

Key:
MCF-7 cells = test: mammosphere formation assay (3D anchorage independent growth); type: cell-based, human
Method: The compounds disclosed herein may also be used as therapeutic agent to selectively eradicate CSCs for treating and/or preventing tumor recurrence and/or metastasis. […] This assay measures the amount of residual protein that adheres to tissue culture dishes and is a surrogate marker of cell viability.
3D Anchorage Independent Growth Assay: This assay is also referred to as the mammosphere formation assay. A single-cell suspension was prepared using enzymatic, and manual disaggregation (25-g needle). Then, cells were plated at a density of 500 cells/cm^2 in mammosphere medium (DMEM-F12+1X B-27 Plus Supplement+20 ng/ml EGF+Pen/Strep) under non-adherent conditions, in culture dishes pre-coated with (2-hydroxyethylmethacrylate) (poly-HEMA, Sigma Aldrich Inc.), called “mammosphere plates.” Cells were grown for 5 days and maintained in a humidified incubator at 37° C. After 5 days of culture, 3D-mammospheres >50 μm were counted using an eye piece (“graticule”), and the percentage of cells plated which formed spheres was calculated and is referred to as percent mammosphere formation, and was normalized to one (1=100% MFE). 3D mammosphere formation efficiency (MFE) was analyzed in both the ATP-low and ATP-high sub-populations of cells. All 3D mammosphere experiments were performed in triplicate, at least 3 times independently.

[1] = tested on: MRC-5 cells treated with BrdU (senescent fibroblasts); test: SRB assay, BrdU-treated (senescent) MRC-5 cells; type: cell-based, human
Method: (§1) For example, in one assay bromodeoxyuridine (5-bromo-2′-deoxyuridine), also known as BrdU, was used to induce senescence in a cell population. BrdU is an analog of the nucleoside thymidine commonly used to identify proliferating cells. BrdU induces controlled DNA damage, and drives cells towards senescence with high efficiency. In the BrdU assay, normal fibroblasts are subjected to prolonged culture (8-days) in the presence of BrdU at 100 μM to induce controlled DNA-damage and senescence. […] Senolytic activity was assessed using the sulforhodamine B assay, also known in the art as the SRB assay. This assay measures the amount of protein remaining attached to the tissue-culture dishes, and is a surrogate marker for cell viability.
(§2) FIG. 1 compares SRB assay results for different concentrations of Azithromycin (100 µM and 50 μM) and Compound [I] (100 μM and 50 μM) of the present approach, on both control MRC-5 cells and MRC-5 cells treated with BrdU. […] (labelled as “Azi-Gal” in FIG. 1) for another 5 days. After that, the SRB assay was performed to determine the effects of the drug on cell viability, using normal MRC-5 cells as the control. […] However, at 50 μM Azithromycin had no effect on either the control cells or senescent cells.
(§3) BrdU Assay: Cells were plated into 24-well plates. Next day, half of the plate was treated with 100 μM of BrdU while control wells were treated with vehicle only (DMSO) and incubated for 8 days at 37° C. in a 5% CO2 humidified atmosphere. After 8 days of BrdU treatment cells were treated with various test compounds or drugs (e.g., azithromycin, roxithromycin, telithromycin, erythromycin, etc.) for another 3-5 days. BrdU or vehicle treatments were continued during the drug treatments as well.
(§4) Sulphorhodamine B assay: After the incubation of the plates cell viability was measured by Sulphorhodamine B assay (SRB). The assay is based on the measurement of cellular protein contents. Cells were fixed with 10% Trichloroacetic acid (TCA) for 1 hour at […], and were dried overnight at room temperature. Then, plates were incubated with SRB for 30 min, washed twice with 1% acetic acid and air dried for at least 1 h. Finally, the protein-bound dye was dissolved in a 10 mM Tris, pH 8.8, solution and read using a plate reader at 540-nm.

[2] = tested on: control MRC-5 cells (normal lung fibroblasts); test: SRB assay, control (normal) MRC-5 cells; type: cell-based, human; conditions: 10 μM
Method: as §1, §2, §3, §4

microorganism = test: antibiotic activity screen, in vitro broth microdilution assay (overall statement); type: cell-based; conditions: vs azithromycin and erythromycin / reference compounds
Method: This is advantageous because use of the compounds of the present approach as therapeutic agents will have less of an impact on the development of antibiotic resistance. For example, embodiments of the present approach were screened for antibiotic activity, using the in vitro broth microdilution assay. […] The assay conditions, described by the Clinical and Laboratory Standards Institute were used for preparation of the inoculum, growth medium, and end point reading. Test substance was dissolved in 100% DMSO, suspended completely by vortexing, diluted by 2-fold serial titrations in the same vehicle, for a total of 11 test concentrations. A 4 μL aliquot of each dilution was added to 196 μL of broth medium seeded with the organism suspension in wells of a 96 well plate (bacterial count: 2-8×10(5) colony forming units/mL final). The final volume was 200 μL in each well and the final DMSO concentration was 2 percent. Test concentrations were 0.1 to 100 μM. Following incubation, the test plates were visually examined and wells were scored for growth or complete growth inhibition to define the minimum inhibitory concentration. Each test substance was evaluated with replicates. Vehicle controls and an active reference agent were used as blank and positive controls. Note that MRSA represents methicillin-resistant Staphylococcus aureus, and VRE represents vancomycin resistant Enterococcus.

`CC[C@H]1OC(=O)[C@H](C)[C@@H](O[C@@H]2C[C@@](C)(OC)[C@@H](O)[C@H](C)O2)[C@H](C)[C@@H](O[C@@H]2O[C@H](C)C[C@H](N(C)C)[C@H]2OC(=O)OCc2ccc(O[C@@H]3O[C@H](COC(C)=O)[C@H](OC(C)=O)[C@H](OC(C)=O)[C@H]3OC(C)=O)c([N+](=O)[O-])c2)[C@](C)(O)C[C@@H](C)CN(C)[C@H](C)[C@@H](O)[C@]1(C)O` [Compound [I], [(2R,3S,4S,5R,6S)-3,4,5-triacetoxy-6-[4-[[(2S,3R,4S,6R)-4-(dimethylamino)-2-[[(2R,3S,4R,5R,8R,10R,11R,12S,13S,14R)-2-ethyl-3,4,10-trihydroxy-13-[(2S,4R,5S,6S)-5-hydroxy-4-methoxy-4,6-dimethyl-tetrahydropyran-2-yl]oxy-3,5,6,8,10,12,14-heptamethyl-15-oxo-1-oxa-6-azacyclopentadec-11-yl]oxy]-6-methyl-tetrahydropyran-3-yl]oxycarbonyloxymethyl]-2-nitro-phenoxy]tetrahydropyran-2-yl]methyl acetate] was tested, and the “inhibition of mammosphere formation” value (MCF-7 cells; 100 μM) was “nearly complete inhibition”, the IC50 (MCF-7 cells; Homo sapiens, MCF7) was 60 µM and the “effect on senescent cells (SRB)” value ([1]; 10 μM) was “effective”. For the same compound, the “selectivity towards senescent MRC-5 fibroblasts (SRB)” value ([1]; 50 μM, senescent vs control MRC-5) was “exceptional selectivity”, the “effect on control cells (SRB)” value [2] was “effective” and the “antibiotic activity compared to macrolide antibiotics” value (microorganism) was “less antibiotic activity”.
